Measured values reported in patent publication US20230149408A1, “INHIBITORS OF HUMAN IMMUNODEFICIENCY VIRUS REPLICATION” (VIIV HEALTHCARE UK (No. 5) LIMITED, priority 2020, published 2023).
Like-named read-outs stand apart in the source and are kept apart here.

Columns and labels:
Type in all cases: cell-based
[1] = Compound cytotoxicity, XTT-based colorimetric assay; details: human; uninfected MT2 cells, day 4, XTT
Description: (§1) Compound cytotoxicity and the corresponding CC50 values were determined using the same protocol as described in the antiviral assay except that uninfected cells were used. Cytotoxicity was assessed on day 4 in uninfected MT2 cells by using a XTT (2,3-bis[2-Methoxy-4-nitro-5-sulfophenyl]-2H-tetrazolium-5-carboxyanilide inner salt)-based colorimetric assay (Sigma-Aldrich, St Louis, Mo).

recombinant NL4-3 virus = experiment: HIV cell culture assay: antiviral activity toward recombinant NL4-3 Renilla luciferase virus in MT-2 cells
Description: HIV cell culture assay - MT-2 cells, 293T cells and the proviral DNA clone of NL4-3 virus were obtained from the NIH AIDS Research and Reference Reagent Program. MT-2 cells were propagated in RPMI 1640 media supplemented with 10% heat inactivated fetal bovine serum (FBS), […]. The 293T cells were propagated in DMEM media supplemented with 10% heat inactivated FBS, […]. A recombinant NL4-3 proviral clone, in which a section of the nef gene was replaced with the Renilla luciferase gene, was used to make the reference virus used in these studies. The recombinant virus was prepared through transfection of the recombinant NL4-3 proviral clone into 293T cells using Transit-293 Transfection Reagent from Mirus Bio LLC (Madison, WI). Supernatent was harvested after 2-3 days and the amount of virus present was titered in MT-2 cells using luciferase enzyme activity as a marker by measuring luciferase enzyme activity. Luciferase was quantitated using the EnduRen Live Cell Substrate from Promega (Madison, WI). Antiviral activities of compounds toward the recombinant virus were quantified by measuring luciferase activity in MT-2 cells infected for 4-5 days with the recombinant virus in the presence of serial dilutions of the compound.
The 50% effective concentration (EC50) was calculated by using the exponential form of the median effect equation where (Fa) = 1/[1+ (ED50/drug conc.)m] (Johnson VA, Byington RT. Infectivity Assay. In Techniques in HIV Research. ed. Aldovini A, Walker BD. 71-76. New York: Stockton Press.1990). The 50% inhibitory concentration (EC50) was calculated by using the exponential form of the median effect equation where percent inhibition = 1/[1 + (EC50/drug concentration)m], where m is a parameter that reflects the slope of the concentration-response curve.

uninfected MT2 cells = experiment: Compound cytotoxicity, XTT-based colorimetric assay; details: day 4, XTT
Description: as §1

[2] = Human immunodeficiency virus 1, NL43, MT2

`Cn1nc(NS(C)(=O)=O)c2c(Cl)ccc(-n3c([C@H](Cc4cc(F)cc(F)c4)NC(=O)Cn4nc(C(F)F)c5c4C(F)(F)[C@@H]4C[C@H]54)nc4cc(-c5nccc(C(F)F)n5)ccc4c3=O)c21` (single isomer, unassigned) [Example 2] showed a CC50 at 4 day [1] of over 20 µM and an EC50 (recombinant NL4-3 virus; [2]) of 0.043 nM.

Work on `Cn1nc(NS(C)(=O)=O)c2c(Cl)ccc(-n3c([C@H](Cc4cc(F)cc(F)c4)NC(=O)Cn4nc(C(F)F)c5c4C(F)(F)[C@@H]4C[C@H]54)nc4cc(-c5cccc(C(F)(F)F)n5)ccc4c3=O)c21` [Example 1, N-((S)-1-((3P)-3-(4-chloro-1-methyl-3-(methylsulfonamido)-1H-indazol-7-yl)-4-oxo-7-(6-(trifluoromethyl)pyridin-2-yl)-3,4-dihydroquinazolin-2-yl)-2-(3,5-difluorophenyl)ethyl)-2-((3bS,4aR)-3-(difluoromethyl)-5,5-difluoro-3b,4,4a,5-tetrahydro-1H-cyclopropa[3,4]cyclopenta[1,2-c]pyrazol-1-yl)acetamide] yielded a CC50 (uninfected MT2 cells) of over 20 µM and an EC50 (recombinant NL4-3 virus; MT-2 cells infected 4-5 days, luciferase activity, read-out: EC50) of 0.093 nM.

`Cn1nc(NS(C)(=O)=O)c2cccc(-n3c([C@H](Cc4cc(F)cc(F)c4)NC(=O)Cn4nc(C(F)F)c5c4C(F)(F)[C@@H]4C[C@H]54)nc4nc(OCCC(C)(F)F)ccc4c3=O)c21` (single isomer, unassigned) [Example 3] gave a CC50 at 4 day [1] of over 20 µM and an EC50 (recombinant NL4-3 virus; [2]) of 0.019 nM.

Compound `Cn1nc(NS(C)(=O)=O)c2c(Cl)ccc(-n3c([C@H](Cc4cc(F)cc(F)c4)NC(=O)Cn4nc(C(F)F)c5c4C(F)(F)[C@@H]4C[C@H]54)nc4nc(OCCC(F)(F)F)ccc4c3=O)c21` (atropisomer, axis not shown; (P)) [Example 4, N-(1-((6P)-3-(4-chloro-1-methyl-3-(methylsulfonamido)-1H-indazol-7-yl)-4-oxo-7-(3,3,3-trifluoropropoxy)-3,4-dihydropyrido[2,3-d]pyrimidin-2-yl)-2-(3,5-difluorophenyl)ethyl)-2-((3bS,4aR)-3-(difluoromethyl)-5,5-difluoro-3b,4,4a,5-tetrahydro-1H-cyclopropa[3,4]cyclopenta[1,2-c]pyrazol-1-yl)acetamide] has a CC50 at 4 day [1] of over 0.5 µM and an EC50 (recombinant NL4-3 virus; [2]) of 0.025 nM.
